In the supplement of paper PMC10307832:

How the values were obtained:
Experiment in all cases: relative viability (nuclei count vs DMSO), 5 days (fraction); higher = more cells survive
[1] = compound: C1=CC(=CC=C1NC(=S)NNC2=C(C=C(C=C2[N+](=O)[O-])C(F)(F)F)[N+](=O)[O-])F [Kobe2602] + CC(C)C[C@H](NC(=O)[C@H](Cc1ccccc1)NC(=O)c1cnccn1)B(O)O [Bortezomib] (partner 0.002 µM)
How it was run: (§1)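 Lung cancer cell lines in 1536-well plates were dosed by pin tool the day after seeding, either with one drug alone or with a fixed anchor-drug dose plus five library-drug doses (not always all listed) in √10 steps. After 5 days, cells were fixed and their nuclei stained in one step (final 0.05% Triton X-100, 1% formaldehyde, 1 ug/ml Hoechst), then counted on 4× images. Relative viability is the nuclei count in treated wells divided by that in vehicle wells. Values are medians of duplicate plates.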

[2] = compound: C1=CC(=CC=C1NC(=S)NNC2=C(C=C(C=C2[N+](=O)[O-])C(F)(F)F)[N+](=O)[O-])F [Kobe2602] + Cc1cc(Nc2cc(N3CCN(C)CC3)nc(Sc3ccc(NC(=O)C4CC4)cc3)n2)n[nH]1 [Tozasertib] (partner 0.1 µM)
How it was run: as §1

[3] = compound: COc1cc2nccc(Oc3ccc(NC(=O)C4(C(=O)Nc5ccc(F)cc5)CC4)cc3)c2cc1OC [Cabozantinib] + N=C(N)NC(=N)NCCc1ccccc1 [Phenformin] (partner 250 µM)
How it was run: as §1

[4] = compound: COc1cc2nccc(Oc3ccc(NC(=O)C4(C(=O)Nc5ccc(F)cc5)CC4)cc3)c2cc1OC [Cabozantinib] + Nc1ncn([C@H]2C[C@H](O)[C@@H](CO)O2)c(=O)n1 [Decitabine] (partner 2 µM)
How it was run: as §1

Row | Cell Line | relative viability ([1]; first compound 0.2 µM) | relative viability ([1]; first compound 0.6325 µM) | relative viability ([1]; first compound 2 µM) | relative viability ([1]; first compound 6.325 µM) | relative viability ([1]; first compound 20 µM) | relative viability ([2]; first compound 0.2 µM) | relative viability ([2]; first compound 0.6325 µM) | relative viability ([2]; first compound 2 µM) | relative viability ([2]; first compound 6.325 µM) | relative viability ([2]; first compound 20 µM) | relative viability ([3]; first compound 0.02 µM) | relative viability ([3]; first compound 0.06325 µM) | relative viability ([3]; first compound 0.2 µM) | relative viability ([3]; first compound 0.6325 µM) | relative viability ([3]; first compound 2 µM) | relative viability ([4]; first compound 0.02 µM) | relative viability ([4]; first compound 0.06325 µM) | relative viability ([4]; first compound 0.2 µM) | relative viability ([4]; first compound 0.6325 µM) | relative viability ([4]; first compound 2 µM)
1 | A-427 | 0.998 | 0.991 | 0.982 | 0.779 | 1.07 | 0.233 | 0.242 | 0.198 | 0.229 | 0.218 | 0.374 | 0.321 | 0.427 | 0.359 | 0.232 | 0.569 | 0.589 | 0.57 | 0.621 | 0.596
2 | ABC-1 | 0.42 | 0.256 | 0.283 | 0.35 | 0.336 | 0.201 | 0.181 | – | 0.216 | 0.215 | 0.244 | 0.276 | 0.235 | 0.28 | 0.218 | – | 0.846 | 1.05 | 1.05 | 0.982
3 | BEN | 0.908 | 0.897 | 0.938 | 0.821 | 0.99 | 0.56 | 0.518 | 0.491 | 0.666 | 0.555 | 0.251 | 0.259 | 0.284 | 0.268 | 0.274 | 0.63 | 0.815 | 0.7 | 0.733 | 0.566
4 | COR-L23 | 0.88 | 1.04 | 0.914 | 1.07 | 0.92 | 0.177 | 0.172 | 0.165 | 0.157 | 0.154 | 0.433 | 0.438 | 0.413 | 0.443 | 0.408 | 0.449 | 0.371 | 0.445 | 0.441 | 0.419
5 | COR-L 105 | 0.688 | 1.14 | 0.739 | 0.692 | 0.746 | 0.364 | 0.322 | 0.371 | 0.401 | 0.366 | 0.387 | 0.477 | – | 0.581 | 0.481 | 0.606 | 0.764 | 0.582 | 0.735 | 0.69
6 | ChaGo-K-1 | 1.04 | 1.09 | 0.788 | 1.06 | 0.946 | 0.251 | 0.244 | 0.226 | 0.227 | 0.245 | 0.424 | 0.519 | 0.469 | 0.513 | 0.501 | 0.551 | 0.52 | 0.549 | 0.534 | 0.547
7 | EKVX | 1.13 | 1.08 | 0.994 | 1.02 | 1.1 | 0.391 | 0.284 | 0.362 | 0.365 | 0.278 | 0.239 | 0.253 | 0.223 | 0.222 | 0.23 | 0.328 | 0.386 | 0.261 | 0.336 | 0.394
8 | EMC-BAC-2 | 1.08 | 1.17 | 1.06 | 1.12 | 1.12 | 0.286 | 0.297 | 0.286 | 0.333 | 0.32 | 0.475 | 0.589 | 0.582 | 0.516 | 0.476 | 0.998 | 0.963 | 1.04 | 0.994 | 1.13
9 | EPLC-272H | 1.03 | 1.01 | 0.778 | 0.866 | 0.873 | 0.224 | 0.305 | 0.291 | 0.302 | 0.409 | 0.269 | 0.331 | 0.24 | 0.357 | 0.291 | 0.37 | 0.395 | 0.33 | 0.377 | 0.336
10 | H3255 | 0.691 | 0.782 | 0.743 | 0.818 | 0.766 | 0.628 | 0.612 | 0.488 | 0.55 | 0.607 | 0.331 | 0.393 | – | 0.346 | 0.37 | 0.618 | 0.636 | – | 0.685 | 0.644
11 | HARA | 1.17 | 1.1 | 0.994 | 1.14 | 1.12 | 0.117 | 0.102 | 0.122 | 0.508 | 0.123 | 0.417 | 0.508 | 0.443 | 0.408 | 0.411 | 0.556 | 0.653 | – | 0.812 | 0.786
12 | HCC-15 | 0.959 | 1.1 | 0.964 | 0.994 | 1.03 | 0.351 | 0.377 | 0.299 | 0.425 | 0.431 | 0.366 | 0.532 | 0.512 | 0.478 | 0.491 | 0.562 | 0.788 | 0.683 | 0.644 | 0.536
13 | HCC-44 | 0.882 | 0.897 | 0.826 | 0.905 | 0.813 | 0.906 | 0.838 | 0.92 | 0.861 | 0.687 | 0.102 | 0.273 | 0.275 | 0.224 | 0.224 | 0.908 | 0.996 | 0.981 | 1 | 0.987
14 | HCC-78 | 0.543 | 0.574 | 0.446 | 0.244 | 0.57 | 0.428 | 0.413 | 0.369 | 0.314 | 0.525 | – | 0.733 | 0.335 | 0.383 | 0.383 | – | 0.704 | 0.503 | 0.489 | 0.487
15 | HCC-366 | 1.13 | 1.01 | 1.01 | 1.07 | 1.12 | 0.0819 | 0.0969 | 0.0807 | 0.0437 | 0.0481 | 0.675 | 0.612 | 0.653 | 0.623 | 0.581 | 0.351 | 0.393 | 0.336 | 0.305 | 0.354
16 | HCC-827 | 1.09 | 1.15 | 0.965 | 1.01 | 1.08 | 0.444 | 0.448 | 0.391 | 0.416 | 0.425 | 0.425 | 0.441 | – | 0.417 | 0.381 | 0.28 | 0.362 | – | 0.36 | 0.309
17 | HOP-62 | 0.875 | 1.15 | 0.508 | 0.75 | 0.818 | 0.399 | 0.359 | 0.418 | 0.341 | 0.335 | 0.706 | 0.777 | 0.741 | 0.693 | 0.697 | 0.241 | 0.214 | 0.22 | 0.225 | 0.181
